US20140242093A1, “METHODS AND COMPOSITIONS FOR MODULATING THE INNATE IMMUNE RESPONSE AND/OR MYOGENESIS IN A MAMMALIAN SUBJECT” (FRED HUTCHINSON CANCER RESEARCH CENTER, priority 2011, published 2014)

Tested on: control human primary myoblasts
Assay: Expression microarray of primary myoblasts transduced with lentivirus carrying DUX4-fl, DUX4-s or GFP
Description: Primary human myoblasts were collected and cultured as previously described (Snider et al., 2010). Primary myoblasts were maintained at or below 70% confluency for proliferation. For differentiation, cells were allowed to reach 95-100% confluency in growth medium. Once confluency was reached, the cells were changed to differentiation medium (F10 media supplemented with 1% horse serum, 10 μg/mL insulin, and 10 μg/mL transferrin, penicillin/streptomycin) and maintained for 4 days. Human RD cells were grown in DMEM in 10% bovine calf serum (Hyclone) and penicillin/streptomycin. The primary myoblasts were transduced with lentivirus carrying DUX-fl, DUX4- or GFP (MOI=15).
Expression microarrays were performed on the transduced cells at 24 hours after transduction as follows. […] Samples were analyzed by Illumina Human Whole Genome microarrays. Probe intensities were corrected, normalized, and summarized by the Lumi package of Bioconductor (Du et al., 2008). Differentially expressed genes were identified by the LIMMA package of Bioconductor (Wettenhall and Smyth, 2004). Gene set enrichment analysis (GSEA) was performed using the Bioconductor GOstats package (Falcon and Gentleman, 2007).

“DUX4-fl: full-length DUX4 protein (SEQ ID NO:110), expressed from lentiviral or pCS2 vectors or in vitro translated” gave a ZBTB4 expression fc (cultured human skeletal muscle) of −1.417, a ZC3H12A expression fc (cultured human skeletal muscle) of −1.546 and a ZFHX3 expression fc (cultured human skeletal muscle) of −1.762. For the same substance, the ZFP36L2 expression fc (cultured human skeletal muscle) was −1.545, the ZFP90 expression fc (cultured human skeletal muscle) was −1.609 and the ZNF337 expression fc (cultured human skeletal muscle) was −1.693. For the same substance, the ZNF395 expression fc (cultured human skeletal muscle) was −1.392, the “Full.fc (expression fold change for DUX4-fl targets)” value (gene AVPI1) was 2 and the “Full.fc (expression fold change for DUX4-fl targets)” value (gene BZW2) was 2.7. The “Full.fc (expression fold change for DUX4-fl targets)” value (gene C1orf63) was 2.2, the “Full.fc (expression fold change for DUX4-fl targets)” value (gene C6orf191) was 2.1 and the “Full.fc (expression fold change for DUX4-fl targets)” value (gene C14orf102) was 2.5. The “Full.fc (expression fold change for DUX4-fl targets)” value (gene C14orf138) was 1.7, the “Full.fc (expression fold change for DUX4-fl targets)” value (gene C21orf91) was 1.8 and the “Full.fc (expression fold change for DUX4-fl targets)” value (gene CBARA1) was 2.1. For the same substance, the “Full.fc (expression fold change for DUX4-fl targets)” value (gene CCNA1) was 7.5, the “Full.fc (expression fold change for DUX4-fl targets)” value (gene CCNJ) was 2.7 and the “Full.fc (expression fold change for DUX4-fl targets)” value (gene CLDN14) was 3.1. For the same substance, the “Full.fc (expression fold change for DUX4-fl targets)” value (gene CLK1) was 1.8, the “Full.fc (expression fold change for DUX4-fl targets)” value (gene CSE1L) was 2.9 and the “Full.fc (expression fold change for DUX4-fl targets)” value (gene CTNNAL1) was 1.6. For the same substance, the “Full.fc (expression fold change for DUX4-fl targets)” value (gene CTR9) was 2.4, the “Full.fc (expression fold change for DUX4-fl targets)” value (gene DBR1) was 3.4 and the “Full.fc (expression fold change for DUX4-fl targets)” value (gene DDX47) was 1.7. For the same substance, the “Full.fc (expression fold change for DUX4-fl targets)” value (gene DEFB103A) was 6.4, the “Full.fc (expression fold change for DUX4-fl targets)” value (gene DENND2C) was 2.6 and the “Full.fc (expression fold change for DUX4-fl targets)” value (gene EGLN1) was 1.6. For the same substance, the “Full.fc (expression fold change for DUX4-fl targets)” value (gene EXOSC10) was 1.9, the “Full.fc (expression fold change for DUX4-fl targets)” value (gene FAM90A1) was 3.6 and the “Full.fc (expression fold change for DUX4-fl targets)” value (gene FBXO33) was 3.2. For the same substance, the “Full.fc (expression fold change for DUX4-fl targets)” value (gene FRG2B) was 2, the “Full.fc (expression fold change for DUX4-fl targets)” value (gene GPBAR1) was 1.9 and the “Full.fc (expression fold change for DUX4-fl targets)” value (gene GTF2F1) was 3.2. For the same substance, the “Full.fc (expression fold change for DUX4-fl targets)” value (gene HOXB2) was 2.2, the “Full.fc (expression fold change for DUX4-fl targets)” value (gene JUP) was 3.2 and the “Full.fc (expression fold change for DUX4-fl targets)” value (gene KDM5B) was 1.8. The “Full.fc (expression fold change for DUX4-fl targets)” value (gene KIF21A) was 1.8, the “Full.fc (expression fold change for DUX4-fl targets)” value (gene MAPKAP1) was 1.6 and the “Full.fc (expression fold change for DUX4-fl targets)” value (gene MAST4) was 1.7. The “Full.fc (expression fold change for DUX4-fl targets)” value (gene MED13) was 1.8, the “Full.fc (expression fold change for DUX4-fl targets)” value (gene NANS) was 1.9 and the “Full.fc (expression fold change for DUX4-fl targets)” value (gene NFYA) was 2.3. For the same substance, the “Full.fc (expression fold change for DUX4-fl targets)” value (gene PABPN1) was 2.6, the “Full.fc (expression fold change for DUX4-fl targets)” value (gene PANX2) was 3.8 and the “Full.fc (expression fold change for DUX4-fl targets)” value (gene PELI1) was 2.9. For the same substance, the “Full.fc (expression fold change for DUX4-fl targets)” value (gene PNP) was 7, the “Full.fc (expression fold change for DUX4-fl targets)” value (gene PPP2R2B) was 4.1 and the “Full.fc (expression fold change for DUX4-fl targets)” value (gene PRAMEF12) was 7.8. The “Full.fc (expression fold change for DUX4-fl targets)” value (gene PRPF18) was 1.7, the “Full.fc (expression fold change for DUX4-fl targets)” value (gene PRR4) was 3.6 and the “Full.fc (expression fold change for DUX4-fl targets)” value (gene PTP4A1) was 1.7. For the same substance, the “Full.fc (expression fold change for DUX4-fl targets)” value (gene PVRL3) was 2.2, the “Full.fc (expression fold change for DUX4-fl targets)” value (gene RBBP6) was 2 and the “Full.fc (expression fold change for DUX4-fl targets)” value (gene RFPL1) was 8.4. For the same substance, the “Full.fc (expression fold change for DUX4-fl targets)” value (gene RFPL2) was 7.3, the “Full.fc (expression fold change for DUX4-fl targets)” value (gene RFPL4B) was 8.3 and the “Full.fc (expression fold change for DUX4-fl targets)” value (gene RTN4) was 1.6. The “Full.fc (expression fold change for DUX4-fl targets)” value (gene SAMD8) was 1.6, the “Full.fc (expression fold change for DUX4-fl targets)” value (gene SEC61A2) was 1.8 and the “Full.fc (expression fold change for DUX4-fl targets)” value (gene SFRS2B) was 4.2. For the same substance, the “Full.fc (expression fold change for DUX4-fl targets)” value (gene SH3GL2) was 1.6, the “Full.fc (expression fold change for DUX4-fl targets)” value (gene SIAH1) was 3.7 and the “Full.fc (expression fold change for DUX4-fl targets)” value (gene SNAI1) was 1.9. The “Full.fc (expression fold change for DUX4-fl targets)” value (gene SON) was 2.1, the “Full.fc (expression fold change for DUX4-fl targets)” value (gene SPRYD5) was 1.8 and the “Full.fc (expression fold change for DUX4-fl targets)” value (gene SPTY2D1) was 3.3. For the same substance, the “Full.fc (expression fold change for DUX4-fl targets)” value (gene SRRT) was 2.6, the “Full.fc (expression fold change for DUX4-fl targets)” value (gene SYNJ1) was 2.4 and the “Full.fc (expression fold change for DUX4-fl targets)” value (gene TAF4B) was 1.9. The “Full.fc (expression fold change for DUX4-fl targets)” value (gene TFIP11) was 3.2, the “Full.fc (expression fold change for DUX4-fl targets)” value (gene TRIM43) was 8.1 and the “Full.fc (expression fold change for DUX4-fl targets)” value (gene TRIM48) was 7.9. For the same substance, the “Full.fc (expression fold change for DUX4-fl targets)” value (gene TRIM49L1) was 6.9, the “Full.fc (expression fold change for DUX4-fl targets)” value (gene TRIM49L2) was 6.9 and the “Full.fc (expression fold change for DUX4-fl targets)” value (gene USP29) was 2.6. The “Full.fc (expression fold change for DUX4-fl targets)” value (gene ZNF217) was 4.1, the “Full.fc (expression fold change for DUX4-fl targets)” value (gene ZNF296) was 5.5 and the “Full.fc (expression fold change for DUX4-fl targets)” value (gene ZNF705A) was 3.9. For the same substance, the “Full.fc (expression fold change for DUX4-fl targets)” value (gene ZSCAN4) was 8.3, the “Full.fc (expression fold change for DUX4-fl targets)” value (gene ZSCAN5B) was 3.8 and the “Full.fc (expression fold change for DUX4-fl targets)” value (gene hCG_1651160) was 8.3.
